Assay results from ChEMBL document CHEMBL4414658, “Melongenaterpenes A-L, Vetispirane-Type Sesquiterpenoids from the Roots of Solanum melongena” (J Nat Prod, 2019).
Activity calls are given as the source filed them.

Tests used:
Format in all cases: functional, cell-based
HeLa = assay: Cytotoxicity against human HeLa cells assessed as reduction in cell viability incubated for 24 hrs by MTT assay
HepG2 = assay: Cytotoxicity against human HepG2 cells assessed as reduction in cell viability incubated for 24 hrs by MTT assay
MCF7 = assay: Cytotoxicity against human MCF7 cells assessed as reduction in cell viability incubated for 24 hrs by MTT assay

Measured: Activity

C=C(CO)[C@@H]1CC[C@]2(C1)[C@@H](CO)C[C@@H](O)[C@H](O)[C@H]2C
inactive: HeLa | HepG2 | MCF7

C=C(CO)[C@@H]1CC[C@]2(C1)[C@H](CO)C[C@@H](O)[C@H](O)[C@H]2C
inactive: HeLa | HepG2 | MCF7

C=C(CO)[C@@H]1CC[C@]2(C1)[C@H](CO)C[C@@H](O)C[C@H]2C
inactive: HeLa | HepG2 | MCF7

C=C(CO[C@@H]1O[C@H](CO)[C@@H](O)[C@H](O)[C@H]1O)[C@@H]1CC[C@]2(C1)[C@@H](C(OC)OC)C[C@@H](O)[C@H](O)[C@H]2C
inactive: HeLa | HepG2 | MCF7

C=C(CO[C@@H]1O[C@H](CO)[C@@H](O)[C@H](O)[C@H]1O)[C@@H]1CC[C@@]2(C1)[C@H](C)[C@@H](O)[C@H](O)C[C@H]2C(OC)OC
inactive: HeLa | HepG2 | MCF7

C=C(CO[C@@H]1O[C@H](CO[C@@H]2OC[C@H](O)[C@H](O)[C@H]2O)[C@@H](O)[C@H](O)[C@H]1O)[C@@H]1CC[C@@]2(C1)C(C)=CC(=O)C[C@H]2C
inactive: HeLa | HepG2 | MCF7
